± gives the expanded uncertainty stated by the source.
Assays:
[1] = refractive index (Na D-line) (dimensionless); details: 293.15 K; 101.33 kPa; Liquid; Standard Abbe refractometry
[2] = 101.33 kPa, Liquid, Vibrating tube method

Compound: CC(=O)O [acetic acid]
- refractive index [1]: 1.3687 ± 0.0008
- mass density ([2]; 293.15 K): 1049.31 ± 0.08 kg/m3
- mass density ([2]; 298.15 K): 1043.65 ± 0.08 kg/m3
- mass density ([2]; 303.15 K): 1037.99 ± 0.07 kg/m3
- mass density ([2]; 313.15 K): 1026.68 ± 0.07 kg/m3
- mass density ([2]; 323.15 K): 1015.36 ± 0.07 kg/m3
- mass density ([2]; 333.15 K): 1004.01 ± 0.07 kg/m3

Compound: CCC(=O)O [propanoic acid]
- refractive index [1]: 1.3835 ± 0.0008
- mass density ([2]; 293.15 K): 993.56 ± 0.09 kg/m3
- mass density ([2]; 298.15 K): 988.15 ± 0.1 kg/m3
- mass density ([2]; 303.15 K): 982.75 ± 0.1 kg/m3
- mass density ([2]; 313.15 K): 971.96 ± 0.1 kg/m3
- mass density ([2]; 323.15 K): 961.16 ± 0.11 kg/m3
- mass density ([2]; 333.15 K): 950.35 ± 0.11 kg/m3

Compound: CCC(C)(C)O [2-methylbutan-2-ol]
- refractive index [1]: 1.4016 ± 0.0008
- mass density ([2]; 293.15 K): 808.98 ± 0.14 kg/m3
- mass density ([2]; 298.15 K): 804.39 ± 0.15 kg/m3
- mass density ([2]; 303.15 K): 799.75 ± 0.15 kg/m3
- mass density ([2]; 313.15 K): 790.27 ± 0.15 kg/m3
- mass density ([2]; 323.15 K): 780.46 ± 0.16 kg/m3
- mass density ([2]; 333.15 K): 770.27 ± 0.16 kg/m3

Compound: CCC(C)O (stereo not given) [butan-2-ol]
- refractive index [1]: 1.3943 ± 0.0008
- mass density ([2]; 293.15 K): 806.75 ± 0.24 kg/m3
- mass density ([2]; 298.15 K): 802.62 ± 0.24 kg/m3
- mass density ([2]; 303.15 K): 798.43 ± 0.24 kg/m3
- mass density ([2]; 313.15 K): 789.75 ± 0.24 kg/m3
- mass density ([2]; 323.15 K): 780.65 ± 0.24 kg/m3
- mass density ([2]; 333.15 K): 771.1 ± 0.24 kg/m3

Compound: CC(C)CO [2-methyl-1-propanol]
- refractive index [1]: 1.3929 ± 0.0008
- mass density ([2]; 293.15 K): 801.99 ± 0.24 kg/m3
- mass density ([2]; 298.15 K): 798.13 ± 0.24 kg/m3
- mass density ([2]; 303.15 K): 794.24 ± 0.24 kg/m3
- mass density ([2]; 313.15 K): 786.28 ± 0.24 kg/m3
- mass density ([2]; 323.15 K): 778.09 ± 0.24 kg/m3
- mass density ([2]; 333.15 K): 769.6 ± 0.24 kg/m3

Source: the NIST ThermoML archive (doi:10.1021/je201102x)
